Earlier results, collected in US20150196708A1, “SYSTEMS, METHODS AND COMPOSITIONS FOR IMPROVED TREATMENT OF ACIDOSIS” (The Regents of the University of California, priority 2012, published 2015).

How the values were obtained:
patients with acidosis = settings: literature (Cooper et al., 1990; Leung et al., 1994)
[1] = room temperature; incorporates CO2(aq)/H2CO3(aq) equilibrium

SMILES	clinical benefit in human studies (patients with acidosis)	Ka1 (deprotonation) [1]
O=C([O-])O.[Na+] [bicarbonate, sodium bicarbonate]	no more beneficial effect than the administration of similar quantities of sodium chloride	
O=C(O)O [carbonic acid]		4.3×10^−7
